The data set in a line: Solubility profile (free acid in HCl/NaOH solution, supernatants assayed by HPLC). It counts as physicochemical. On the procedure: A solubility profile for [1-(4-tert-butylbenzyl)-5-(3-methylphenyl)-1H-indol-3-yl](oxo)acetic acid was generated using the free acid in HCl/NaOH solution (See FIG. 3). Solutions were centrifuged after 24 hours equilibration (2 hours for pH<4 to avoid degradation) and the supernatants were assayed by HPLC.

As for `Cc1cccc(-c2ccc3c(c2)c(C(=O)C(=O)O)cn3Cc2ccc(C(C)(C)C)cc2)c1` [[1-(4-tert-Butylbenzyl)-5-(3-methylphenyl)-1H-indol-3-yl](oxo)acetic acid], the pH-solubility profile entry was “solubility increases with increasing pH” (above pH 4 up to pH 8, free acid in HCl/NaOH, 24 hours equilibration) and “solubility decreases” (above pH 8, precipitation of the sodium salt). For the same compound, the solubility entry (pH<4, the stomach condition, 2 hours equilibration) is reported as “poor solubility”. The aqueous solubility entry (upon ionization in aqueous media) is “approximately 24 uG/mL”.

Values taken from US20080188543A1, “PHARMACEUTICAL COMPOSITIONS CONTAINING SUBSTITUTED INDOLE ACID DERIVATIVES AS INHIBITORS OF PLASMINOGEN ACTIVATOR INHIBITOR-1 (PAI-1)” (Wyeth, priority 2007, published 2008).
